Experimental data taken from US20220204577A1, “Synthetic Peptides With Affinity for the Interleukin-10 Receptor, Pharmaceutical Composition and Use Thereof as Immunomodulators for Treating Autoimmune, Inflammatory or Allergic Diseases” (Universidade Federal de Uberlândia, priority 2019, published 2022).
Positions of bridges follow the written chain, without caps; N, C: chain ends. No end group written: not given here.

Tests used:
[1] = Dynamic Light Scattering (DLS), aggregation behavior in solution; assay type: physicochemical
Description: The aggregation behavior of peptides Pep 1, Pep 2, Pep 3, and Pep 4 in solution was determined by Dynamic Light Scattering (DLS), as shown in FIG. 1E. All synthetic peptides were approximately 100% monomeric in solution. The measured hydrodynamic radius of the peptides was similar for Pep 1 (0.82 nm), Pep 2 ([…]), Pep 3 (0.79 nm), and Pep 4 (0.86 nm).

[2] = system: NFκB, IFN, or TLR4 signaling pathways; assay: Reporter cell lines treated with peptides alone (no activating molecule); assay type: cell-based; details: various concentrations, 12, 24 and 48 hours
Description: To investigate the ability of the peptides to interfere with the NFkB, IFN, and TLR4 pathways, reporter cell lines were used. To analyze whether the isolated peptides (without activation molecules) could induce any type of activation, the isolated peptides were tested in the cell lines during 12, 24, and 48 hours of treatment. […] As an example, FIGS. 2A, 2B, and 2C show an analysis of NFkB expression after stimulation with the synthesized peptides described in this report. The cells were treated with the synthesized peptides Pep 1, Pep 2, Pep 3, and Pep 4 at various concentrations for 12, 24, and 48 hours, without activating molecules. Luciferase was then measured after 12 hours of treatment (FIG. 2A), 24 hours of treatment (FIG. 2B), and 48 hours of treatment (FIG. 2C). […] TNF-α (200 ng/mL) was used as a positive control.

[3] = system: NFκB; assay: NFkB expression in Jurkart-Dual reporter cells, peptide pre-treatment then TNF-α; assay type: cell-based; details: peptide 1 hour, then TNF-α 200 ng/ml; all concentrations tested; 12, 24 and 48 hours
Description: The assay was then performed using TNF-α as the activating molecule not only in the control, but after a pre-treatment with the synthesized peptides Pep 1, Pep 2, Pep 3, and Pep 4 at various concentrations. […] In the assays shown in FIGS. 3 A, B, and C, NFkB expression analysis was performed in Jurkart-Dual reporter cells. Cells were treated with peptides for 1 hour and TNF-α (200 ng/ml) was added. Luciferase was measured after 12 hours of treatment (FIG. 3A), 24 hours of treatment (FIG. 3B), and 48 hours of treatment (FIG. 3C).

[4] = system: NFκB; assay: NFkB expression in Jurkart-Dual reporter cells, TNF-α pre-treatment then peptides; assay type: cell-based; details: for NFκB signaling: TNF-α then peptide
Description: Then another assay was performed in which the cells were pretreated with TNF-α and the peptides were added later. […] In the assays shown in FIGS. 4 A, B, and C the analysis of NFkB expression was performed in Jurkart-Dual reporter cells. Cells were treated with TNF-α (200 ng/ml) for 1 hour and the peptides were added. Luciferase was measured after 12 hours of treatment (FIG. 4A), 24 hours of treatment (FIG. 4B), and 48 hours of treatment (FIG. 4C). TNF-α (200 ng/mL) was used as a positive control and rIL-10 (Recombinant Interleukin-10) (0.4 ng/mL) as a negative control. * P<0.05; ** P<0.005; *** P<0.0005.

[5] = system: TLR4 signaling pathway; assay: TLR4 signaling pathway (SEAP) in HEK cells, peptide pre-treatment then LPS; assay type: cell-based; details: peptide then LPS; 0.005 μM; 12 hours
Description: HEK cells were used to investigate the ability of the peptides to reduce activation of the TLR4 signaling pathway after 12 hours of treatment.
In the assay shown in FIG. 7A, the cells were treated with peptides for 1 hour, then LPS (100 ng/ml) was added. SEAP production was measured after 12 hours of treatment. In the assay shown in FIG. 7B, the cells were treated with LPS (100 ng/ml) for 1 hour, then the peptides were added. SEAP production was measured after 12 hours of treatment. LPS (100 ng/mL) was used as positive control and IL-10 (0.4 ng/mL) as negative control. * P<0.05; ** P<0.005; *** P<0.0005.

[6] = system: T cells from allergic patients; assay: Proliferation of T cells from allergic patients; assay type: cell-based; details: 10 μM; 24 hours; Bet v 1 positive control
Description: To confirm the ability of the synthesized peptides to decrease dendritic cell activation, a composition containing Pep 1 at a concentration of 10 μM was chosen and the proliferation of T cells from allergic patients was measured after 24 hours of treatment. […] Cells were treated with Bet v 1 as a positive control, and an irrelevant peptide (IR) was used as a negative control.

[7] = system: mouse basophilic leukemia cells transfected with the human FcεRI IgE receptor (hRBL); assay: IgE-mediated release of β-hexosaminidase (basophil degranulation) in hRBL cells; assay type: cell-based; details: 1 μM; versus cells treated with Bet v1 alone; serum from seven birch pollen-allergic donors
Description: The effect of Pep 1 on IgE-mediated release was studied using mouse basophilic leukemia cells transfected with the human FcεRI IgE receptor (hRBL). The hRBL cells were sensitized with serum from seven patients allergic to birch pollen. The cells were stimulated with the antigen and its interaction with immobilized IgEs resulting in the release of β-hexosaminidase.
When cells were treated with a composition containing Pep 1 to 1 μM (FIG. 10A) or rIL10 (FIG. 10B), the amount of Bet v 1 required to induce the same amount of degranulation was higher than for cells treated with Bet v1 alone (P<0.05). Amount of rBet v 1 (ng/mL) required to induce half the release of β-hexosaminidase using serum from seven birch pollen-allergic donors after treatment with Pep 1 (A) (P<0.05) and rIL10 (B) * P<0.05.

[8] = system: cell line J774; assay: Cytokines production after treatment of cell line J774; assay type: cell-based; set-up: levels of MCP-1: dose or concentration left out as unconfirmed
Description: After 24 hours of treatment, the produced amounts of IL-6, MCP-1, and TNF-α were measured. […] In contrast, when cells were treated with a composition of Pep 1 followed by incubation with LPS (1 mg/ml) for 24 hours to induce an inflammatory response, the peptide was able to decrease the production of IL-6, MCP-1, and TNF-α.
Each decrease was significant compared to cells treated with LPS alone (positive control). * P<0.05; ** P<0.005; *** P<0.0005

Pep 1: synthetic peptide with affinity to the Interleukin-10 receptor, SEQ ID No 01, with disulfide bridges (HACSAVIKSSCGGGS; disulfide 3-11 (inferred))
hydrodynamic radius [1]: 0.82 nm | NFkB expression (luciferase) [2]: unable to elicit any response | NFκB activation [3]: able to decrease NFκB activation | NFκB signaling ([4]; 0.0001 μM, 24 hours): less activation of the analyzed signaling pathway | NFκB signaling ([4]; 0.001 μM, 12 hours): decreased the activation of the analyzed pathway | NFκB signaling ([4]; 0.001 μM, 24 hours): less activation of the analyzed signaling pathway | NFκB signaling ([4]; 0.001 μM, 48 hours): reducing NFκB signaling | NFκB signaling ([4]; 0.005 μM, 24 hours): less activation of the analyzed signaling pathway | NFκB signaling ([4]; 0.05 μM, 12 hours): decreased the activation of the analyzed pathway | NFκB signaling ([4]; 0.1 μM, 12 hours): decreased the activation of the analyzed pathway | NFκB signaling ([4]; 0.1 μM, 24 hours): less activation of the analyzed signaling pathway | NFκB signaling ([4]; 0.5 μM, 12 hours): decreased the activation of the analyzed pathway | NFκB signaling ([4]; 1 μM, 12 hours): decreased the activation of the analyzed pathway | NFκB signaling ([4]; 1 μM, 24 hours): less activation of the analyzed signaling pathway | NFκB signaling ([4]; 5 μM, 12 hours): decreased the activation of the analyzed pathway | NFκB signaling ([4]; 10 μM, 12 hours): decreased the activation of the analyzed pathway | NFκB signaling ([4]; 10 μM, 24 hours): less activation of the analyzed signaling pathway | NFκB signaling ([4]; 100 μM, 24 hours): less activation of the analyzed signaling pathway | NFκB activation ([4]; cells pretreated with TNF-α, all concentrations tested, 12 and 24 hours): decreased NFκB activation | TLR4 pathway activation [5]: significantly reduced pathway activation | T cell proliferation [6]: decreased T cell proliferation | amount of Bet v 1 required to induce the same amount of degranulation [7]: higher | IL-10, IFN-γ, or IL12p70 production ([8]; 24 hours of treatment (data not shown)): No interference | levels of IL-6 ([8]; peptide then LPS 24 hours, 1 μM and 10 μM printed beside IL-6, versus LPS alone): significantly reduced | levels of TNF-α ([8]; peptide then LPS 24 hours, 1 μM, 10 μM and 100 μM, versus LPS alone): significantly reduced | levels of MCP-1 ([8]; peptide then LPS 24 hours, versus LPS alone): significantly reduced | cytokine response to peptide alone ([8]; without LPS stimulation (data not shown)): unable to elicit any response
